The record followed here is US8604061B2, “2-aminooxazolines as TAAR1 ligands” (Hoffmann-La Roche Inc., priority 2007, dated 2013).

The target of one assay is TAAR1 (Mus musculus, UniProt Q923Y8). The assay can be described thus: TAAR1 radioligand binding, membranes of stably transfected HEK293 cells (mouse).
Settings: not given
The procedure:
For the construction of expression plasmids the coding sequences of human, rat and mouse TAAR 1 were amplified from genomic DNA essentially as described by Lindemann et al.. The Expand High Fidelity PCR System (Roche Diagnostics) was used with 1.5 mM Mg^2+ and purified PCR products were cloned into pCR2.1-TOPO cloning vector (Invitrogen) following the instructions of the manufacturer. PCR products were subcloned into the pIRESneo2 vector (BD Clontech, Palo Alto, Calif.), and expression vectors were sequence verified before introduction in cell lines.
HEK293 cells (ATCC #CRL-1573) were cultured essentially as described Lindemann et al. (2005). For the generation of stably transfected cell lines HEK293 cells were transfected with the pIRESneo2 expression plasmids containing the TAAR coding sequences (described above) with Lipofectamine 2000 (Invitrogen) according to the instructions of the manufacturer, and 24 hrs post transfection the culture medium was supplemented with 1 mg/ml G418 (Sigma, Buchs, Switzerland). After a culture period of about 10 d clones were isolated, expanded and tested for responsiveness to trace amines (all compounds purchased from Sigma) with the cAMP Biotrak Enzyme immunoassay (EIA) System (Amersham) following the non-acetylation EIA procedure provided by the manufacturer.
Cells at confluence were rinsed with ice-cold phosphate buffered saline without Ca^2+ and Mg^2+ containing 10 mM EDTA and pelleted by centrifugation at 1000 rpm for 5 min at 4° C. The pellet was then washed twice with ice-cold phosphate buffered saline and cell pellet was frozen immediately by immersion in liquid nitrogen and stored until use at −80° C. Cell pellet was then suspended in 20 ml HEPES-NaOH (20 mM), pH 7.4 containing 10 mM EDTA, and homogenized with a Polytron (PT 3000, Kinematica) at 10,000 rpm for 10 s. The homogenate was centrifuged at 48,000×g for 30 min at 4° C. and the pellet resuspended in 20 ml HEPES-NaOH (20 mM), pH 7.4 containing 0.1 mM EDTA (buffer A), and homogenized with a Polytron at 10,000 rpm for 10 s. The homogenate was then centrifuged at 48,000×g for 30 min at 4° C. and the pellet resuspended in 20 ml buffer A, and homogenized with a Polytron at 10,000 rpm for 10 s. Protein concentration was determined by the method of Pierce (Rockford, Ill.). The homogenate was then centrifuged at 48,000×g for 10 min at 4° C., resuspended in HEPES-NaOH (20 mM), pH 7.0 including MgCl2 (10 mM) and […] homogenized with a Polytron at 10,000 rpm for 10 s.
Binding assay was performed at 4° C. in a final volume of 1 ml, and with an incubation time of 30 min. […] Non-specific binding was defined as the amount of [^3H]-rac-2-(1,2,3,4-tetrahydro-1-naphthyl)-2-imidazoline bound in the presence of the appropriate unlabelled ligand (10 μM). Competing ligands were tested in a wide range of concentrations (10 pM-30 μM). […] Each experiment was performed in duplicate. All incubations were terminated by rapid filtration through UniFilter-96 plates (Packard Instrument Company) and glass filter GF/C, pre-soaked for at least 2 h in polyethylenimine 0.3%, and using a Filtermate 96 Cell Harvester (Packard Instrument Company). The tubes and filters were then washed 3 times with 1 ml aliquots of cold buffer B. Filters were not dried and soaked in Ultima gold (45 μl/well, Packard Instrument Company) and bound radioactivity was counted by a TopCount Microplate Scintillation Counter (Packard Instrument Company).
In turn, `Cc1cccc(CC[C@H]2COC(N)=N2)c1` [Example 115, (S)-4-(2-m-Tolyl-ethyl)-4,5-dihydro-oxazol-2-ylamine] displayed a Ki of 0.001 µM. Consider `NC1=N[C@@H](CCc2ccc(F)cc2Cl)CO1` [Example 139, (S)-4-[2-(2-Chloro-4-fluoro-phenyl)-ethyl]-4,5-dihydro-oxazol-2-ylamine], for which the Ki was 0.0019 µM.

Still in this assay, the particulars now being: mouse/rat; cell not marked 'rat'; radioligand [3H]-rac-2-(1,2,3,4-tetrahydro-1-naphthyl)-2-imidazoline, 4° C.; read-out: Ki (μM) mouse/rat.
`NC1=N[C@@H](c2cc(F)ccc2F)CO1` [Example 101, (S)-4-(2,5-Difluoro-phenyl)-4,5-dihydro-oxazol-2-ylamine]: the Ki worked out at 0.0034 µM. With `NC1=N[C@@H](c2ccc3ccccc3c2)CO1` [Example 103, (S)-4-Naphthalen-2-yl-4,5-dihydro-oxazol-2-ylamine], the Ki was determined as 0.0004 µM. In the case of `NC1=N[C@@H](c2ccc(Br)cc2)CO1` [Example 105, (S)-4-(4-Bromo-phenyl)-4,5-dihydro-oxazol-2-ylamine], the Ki was 0.0007 µM. Take `NC1=N[C@@H](c2cc(F)c(F)cc2F)CO1` [Example 107, (S)-4-(2,4,5-Trifluoro-phenyl)-4,5-dihydro-oxazol-2-ylamine]: the Ki was 0.004 µM. Still for that read-out and setting: next, `NC1=N[C@@H](c2cccc(Cl)c2F)CO1` [Example 109, (S)-4-(3-Chloro-2-fluoro-phenyl)-4,5-dihydro-oxazol-2-ylamine]: 0.0014 µM; `NC1=N[C@@H](CCc2ccccc2C(F)(F)F)CO1` [Example 110, (S)-4-[2-(2-Trifluoromethyl-phenyl)-ethyl]-4,5-dihydro-oxazol-2-ylamine]: 0.0018 µM; `NC1=N[C@@H](CCc2ccccc2F)CO1` [Example 111, (S)-4-[2-(2-Fluoro-phenyl)-ethyl]-4,5-dihydro-oxazol-2-ylamine]: 0.0011 µM. In the case of `NC1=N[C@@H](CCc2cccc(F)c2)CO1` [Example 112, (S)-4-[2-(3-Fluoro-phenyl)-ethyl]-4,5-dihydro-oxazol-2-ylamine], the Ki was determined as 0.0012 µM. Still for that read-out and setting: next, `NC1=N[C@@H](CCc2cc(F)cc(F)c2)CO1` [Example 113, (S)-4-[2-(3,5-Difluoro-phenyl)-ethyl]-4,5-dihydro-oxazol-2-ylamine]: 0.0016 µM; `Cc1ccccc1CC[C@H]1COC(N)=N1` [Example 114, (S)-4-(2-o-Tolyl-ethyl)-4,5-dihydro-oxazol-2-ylamine]: 0.0021 µM. Same read-out and setting: next, `Cc1ccc(CC[C@H]2COC(N)=N2)cc1` [Example 116, (S)-4-(2-p-Tolyl-ethyl)-4,5-dihydro-oxazol-2-ylamine]: 0.0012 µM. Turning to `NC1=N[C@@H](c2cc(F)cc(F)c2F)CO1` [Example 118, (S)-4-(2,3,5-Trifluoro-phenyl)-4,5-dihydro-oxazol-2-ylamine], the Ki was determined as 0.003 µM. Take `NC1=N[C@@H](CCc2ccc(C(F)(F)F)cc2)CO1` [Example 119, (S)-4-[2-(4-Trifluoromethyl-phenyl)-ethyl]-4,5-dihydro-oxazol-2-ylamine]: the Ki amounted to 0.0026 µM. Same read-out and setting: next, `NC1=N[C@@H](CCc2cccc(C(F)(F)F)c2)CO1` [Example 120, (S)-4-[2-(3-Trifluoromethyl-phenyl)-ethyl]-4,5-dihydro-oxazol-2-ylamine]: 0.0014 µM. `NC1=N[C@@H](c2ccccc2C(F)(F)F)CO1` [Example 122, (S)-4-(2-Trifluoromethyl-phenyl)-4,5-dihydro-oxazol-2-ylamine]: the Ki came out at 0.0034 µM. On the same count and under the same terms, next, `NC1=N[C@H](CCc2ccc(Cl)c(Cl)c2)CO1` [Example 124, (R)-4-[2-(3,4-Dichloro-phenyl)-ethyl]-4,5-dihydro-oxazol-2-ylamine]: 0.0044 µM; `NC1=N[C@@H](CCc2ccc(Cl)c(Cl)c2)CO1` [Example 127, (S)-4-[2-(3,4-Dichloro-phenyl)-ethyl]-4,5-dihydro-oxazol-2-ylamine]: 0.0003 µM; `COc1ccc([C@H]2COC(N)=N2)cc1C` [Example 129, (S)-4-(4-Methoxy-3-methyl-phenyl)-4,5-dihydro-oxazol-2-ylamine]: 0.0029 µM.

Turning to `COc1ccc([C@H]2COC(N)=N2)cc1Cl` [Example 131, (S)-4-(3-Chloro-4-methoxy-phenyl)-4,5-dihydro-oxazol-2-ylamine], the Ki amounted to 0.0024 µM.

Consider `NC1=N[C@@H](CCc2ccc(Cl)cc2F)CO1` [Example 132, (S)-4-[2-(4-Chloro-2-fluoro-phenyl)-ethyl]-4,5-dihydro-oxazol-2-ylamine], for which the Ki is 0.0007 µM. Take `NC1=N[C@@H](CCc2ccc(F)c(C(F)(F)F)c2)CO1` [Example 133, (S)-4-[2-(4-Fluoro-3-trifluoromethyl-phenyl)-ethyl]-4,5-dihydro-oxazol-2-ylamine]: the Ki was 0.0022 µM. In the case of `C[C@]1(c2ccc(Cl)c(Cl)c2)COC(N)=N1` [Example 135, (S)-4-(3,4-Dichloro-phenyl)-4-methyl-4,5-dihydro-oxazol-2-ylamine], the Ki was 0.0009 µM. On to `C[C@]1(c2ccc(Cl)cc2)COC(N)=N1` [Example 136, (S)-4-(4-Chloro-phenyl)-4-methyl-4,5-dihydro-oxazol-2-ylamine], for which the Ki was 0.0038 µM. The same measure, in the same setting: in the case of `NC1=N[C@@H](CCc2ccc(C(F)(F)F)c(F)c2)CO1` [Example 137, (S)-4-[2-(3-Fluoro-4-trifluoromethyl-phenyl)-ethyl]-4,5-dihydro-oxazol-2-ylamine] it was 0.0025 µM; in that of `NC1=N[C@@H](CCc2cc(Cl)cc(Cl)c2)CO1` [Example 138, (S)-4-[2-(3,5-Dichloro-phenyl)-ethyl]-4,5-dihydro-oxazol-2-ylamine], 0.0012 µM; in that of `Cc1cc(CC[C@H]2COC(N)=N2)ccc1F` [Example 140, (S)-4-[2-(4-Fluoro-3-methyl-phenyl)-ethyl]-4,5-dihydro-oxazol-2-ylamine], 0.001 µM.

As for `NC1=N[C@@H](CCc2cccc(OC(F)(F)C(F)F)c2)CO1` [Example 141, (S)-4-{2-[3-(1,1,2,2-Tetrafluoro-ethoxy)-phenyl]-ethyl}-4,5-dihydro-oxazol-2-ylamine], the Ki is 0.0027 µM. Same read-out and setting: next, `NC1=N[C@@H](CCc2cccc(C(F)(F)F)c2F)CO1` [Example 142, (S)-4-[2-(2-Fluoro-3-trifluoromethyl-phenyl)-ethyl]-4,5-dihydro-oxazol-2-ylamine]: 0.0018 µM; `NC1=N[C@@H](CCc2cccc(Br)c2)CO1` [Example 143, (S)-4-[2-(3-Bromo-phenyl)-ethyl]-4,5-dihydro-oxazol-2-ylamine]: 0.0007 µM. The same measure, in the same setting: next, `NC1=N[C@@H](CCc2ccc(Cl)c(C(F)(F)F)c2)CO1` [Example 144, (S)-4-[2-(4-Chloro-3-trifluoromethyl-phenyl)-ethyl]-4,5-dihydro-oxazol-2-ylamine]: 0.0012 µM; `NC1=N[C@@H](CCc2ccc(OC(F)(F)F)c(F)c2)CO1` [Example 145, (S)-4-[2-(3-Fluoro-4-trifluoromethoxy-phenyl)-ethyl]-4,5-dihydro-oxazol-2-ylamine]: 0.0026 µM.

Regarding `NC1=N[C@@H](CCc2ccc(F)c(OC(F)(F)F)c2)CO1` [Example 146, (S)-4-[2-(4-Fluoro-3-trifluoromethoxy-phenyl)-ethyl]-4,5-dihydro-oxazol-2-ylamine], the Ki was 0.0041 µM. Same read-out and setting: in the case of `C[C@]1(c2ccc(C(F)(F)F)cc2)COC(N)=N1` [Example 147, (S)-4-Methyl-4-(4-trifluoromethyl-phenyl)-4,5-dihydro-oxazol-2-ylamine] it was 0.0041 µM; in that of `NC1=N[C@@H](CCc2cccc(Cl)c2Cl)CO1` [Example 149, (S)-4-[2-(2,3-Dichloro-phenyl)-ethyl]-4,5-dihydro-oxazol-2-ylamine], 0.0019 µM; in that of `NC1=N[C@@H](CCc2ccc(OC(F)(F)F)c(Cl)c2)CO1` [Example 150, (S)-4-[2-(3-Chloro-4-trifluoromethoxy-phenyl)-ethyl]-4,5-dihydro-oxazol-2-ylamine], 0.0009 µM.
